In ChEMBL document CHEMBL1909046, “DrugMatrix in vitro pharmacology data”:

Tests used:
Calcitonin receptor = target: T1, Calcitonin receptor (Homo sapiens, UniProt P30988); assay type: cell membranes, Membrane; conditions: t47d; note: in other assays of this panel Not Active means under 50% inhibition at 10 µM
T1 sequence (P30988 whole entry): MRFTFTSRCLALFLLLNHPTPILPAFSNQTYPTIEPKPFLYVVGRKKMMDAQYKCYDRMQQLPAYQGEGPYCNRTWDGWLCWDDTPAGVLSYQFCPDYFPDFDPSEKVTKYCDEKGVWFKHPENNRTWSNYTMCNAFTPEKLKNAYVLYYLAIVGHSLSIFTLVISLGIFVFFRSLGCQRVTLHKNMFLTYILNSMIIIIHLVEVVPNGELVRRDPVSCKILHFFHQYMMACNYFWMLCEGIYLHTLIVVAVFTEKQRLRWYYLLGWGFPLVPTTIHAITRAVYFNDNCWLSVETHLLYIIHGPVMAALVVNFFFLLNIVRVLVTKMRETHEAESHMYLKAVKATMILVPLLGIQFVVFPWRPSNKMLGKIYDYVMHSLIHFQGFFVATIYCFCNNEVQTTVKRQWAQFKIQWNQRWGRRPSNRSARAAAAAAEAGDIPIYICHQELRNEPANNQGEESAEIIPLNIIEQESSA

Endothelin-1 receptor = target: T2, Endothelin-1 receptor (Homo sapiens, UniProt P25101); assay type: cell membranes, Membrane; conditions: cho-k1; note: in other assays of this panel Not Active means under 50% inhibition at 10 µM
T2 sequence (P25101 whole entry): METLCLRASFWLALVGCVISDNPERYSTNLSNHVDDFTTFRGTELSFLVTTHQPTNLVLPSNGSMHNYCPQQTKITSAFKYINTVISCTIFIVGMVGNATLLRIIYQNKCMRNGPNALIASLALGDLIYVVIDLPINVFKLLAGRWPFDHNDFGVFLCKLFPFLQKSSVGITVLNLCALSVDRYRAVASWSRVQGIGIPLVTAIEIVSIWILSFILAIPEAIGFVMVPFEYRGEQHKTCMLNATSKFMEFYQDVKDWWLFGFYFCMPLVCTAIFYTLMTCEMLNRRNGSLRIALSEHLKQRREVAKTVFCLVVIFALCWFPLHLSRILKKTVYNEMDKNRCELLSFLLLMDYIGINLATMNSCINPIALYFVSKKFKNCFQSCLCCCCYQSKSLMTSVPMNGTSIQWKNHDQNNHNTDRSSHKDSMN

[1] = DRUGMATRIX: GABAA, Muscimol, Central radioligand binding (ligand: [3H] Muscimol); assay type: cell membranes, Rattus norvegicus, Wistar, Brain, Membrane; conditions: Not Active = under 50% inhibition at 10 µM
[2] = target: T3, Angiotensin-converting enzyme (Oryctolagus cuniculus, UniProt P12822); assay: biochemical; assay type: tissue-based, Lung;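 note: enzymatic inhibition of angiotensin-converting enzyme measured with FAPGG as the substrate; in other assays of this panel Not Active means under 50% inhibition at 10 µM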
T3 sequence (P12822 whole entry): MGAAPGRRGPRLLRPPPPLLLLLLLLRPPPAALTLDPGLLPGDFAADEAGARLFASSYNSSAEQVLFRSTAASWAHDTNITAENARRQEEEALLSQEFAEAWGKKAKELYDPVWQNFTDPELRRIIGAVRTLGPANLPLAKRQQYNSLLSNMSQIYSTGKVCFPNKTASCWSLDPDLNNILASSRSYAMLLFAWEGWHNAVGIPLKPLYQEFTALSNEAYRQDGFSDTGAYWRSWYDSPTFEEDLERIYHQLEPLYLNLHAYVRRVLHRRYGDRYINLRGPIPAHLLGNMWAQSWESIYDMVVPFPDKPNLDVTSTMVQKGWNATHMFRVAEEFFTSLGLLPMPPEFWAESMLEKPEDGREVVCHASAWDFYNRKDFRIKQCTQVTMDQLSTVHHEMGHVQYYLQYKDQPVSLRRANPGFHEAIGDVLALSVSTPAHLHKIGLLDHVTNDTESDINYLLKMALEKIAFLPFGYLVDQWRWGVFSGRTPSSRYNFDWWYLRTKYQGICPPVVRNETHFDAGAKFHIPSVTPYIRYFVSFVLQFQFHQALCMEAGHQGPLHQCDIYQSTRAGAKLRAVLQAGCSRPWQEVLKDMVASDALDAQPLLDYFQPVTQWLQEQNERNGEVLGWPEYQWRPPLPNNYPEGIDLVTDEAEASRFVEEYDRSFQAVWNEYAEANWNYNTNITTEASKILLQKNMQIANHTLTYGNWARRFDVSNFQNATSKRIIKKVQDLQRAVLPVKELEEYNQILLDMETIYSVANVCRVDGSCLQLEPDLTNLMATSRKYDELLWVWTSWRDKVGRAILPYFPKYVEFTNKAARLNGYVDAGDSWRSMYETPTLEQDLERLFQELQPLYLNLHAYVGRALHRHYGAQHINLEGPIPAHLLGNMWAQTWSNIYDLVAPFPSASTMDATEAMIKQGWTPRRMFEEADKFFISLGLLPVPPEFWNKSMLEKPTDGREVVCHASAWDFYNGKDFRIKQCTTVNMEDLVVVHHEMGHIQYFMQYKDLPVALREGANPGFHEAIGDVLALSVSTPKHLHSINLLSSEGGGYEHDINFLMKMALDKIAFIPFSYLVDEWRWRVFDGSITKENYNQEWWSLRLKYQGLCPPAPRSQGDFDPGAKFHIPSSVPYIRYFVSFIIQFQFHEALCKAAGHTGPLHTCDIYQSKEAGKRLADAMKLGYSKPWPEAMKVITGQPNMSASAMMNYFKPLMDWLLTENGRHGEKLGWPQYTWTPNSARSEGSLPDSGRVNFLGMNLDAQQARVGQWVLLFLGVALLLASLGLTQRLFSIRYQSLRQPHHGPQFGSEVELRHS

Adenosine receptor A1 = target: T4, Adenosine receptor A1 (Homo sapiens, UniProt P30542); assay type: cell membranes, CHO, Membrane; conditions: cho;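 note: radioligand binding assay at the adenosine A1 receptor, with DPCPX serving as the labelled ligand; in other assays of this panel Not Active means under 50% inhibition at 10 µM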
T4 sequence (P30542 whole entry): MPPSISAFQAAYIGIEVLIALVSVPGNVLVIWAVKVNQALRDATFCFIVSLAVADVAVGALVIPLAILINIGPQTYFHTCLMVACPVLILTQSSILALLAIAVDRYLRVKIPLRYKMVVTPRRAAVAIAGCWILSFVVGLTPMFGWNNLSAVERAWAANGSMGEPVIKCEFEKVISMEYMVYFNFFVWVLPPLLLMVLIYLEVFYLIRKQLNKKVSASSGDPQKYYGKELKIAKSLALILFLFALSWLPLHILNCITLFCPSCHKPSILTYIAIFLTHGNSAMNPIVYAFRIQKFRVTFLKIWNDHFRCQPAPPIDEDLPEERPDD

C/C=C1\[C@H]2C=C(C)C[C@]1(N)c1ccc(=O)[nH]c1C2 [HUPERZINE A]
Not Active: IC50 (Calcitonin receptor) | IC50 (Endothelin-1 receptor) | IC50 [1] | Ki [1] | IC50 [2] | IC50 (Adenosine receptor A1)

NS(=O)(=O)c1cc2c(cc1Cl)NCNS2(=O)=O [HYDROCHLOROTHIAZIDE]
Not Active: IC50 (Calcitonin receptor) | IC50 (Endothelin-1 receptor) | IC50 [1] | Ki [1] | IC50 [2] | IC50 (Adenosine receptor A1)

O=P1(NCCCl)OCCCN1CCCl (configuration not stated) [IFOSFAMIDE]
Not Active: IC50 (Calcitonin receptor) | IC50 (Endothelin-1 receptor) | IC50 [1] | Ki [1] | IC50 [2] | IC50 (Adenosine receptor A1)

CN1CCC[C@H]1c1cccnc1 [NICOTINE]
Not Active: IC50 (Calcitonin receptor) | IC50 (Endothelin-1 receptor) | IC50 [1] | Ki [1] | IC50 [2] | IC50 (Adenosine receptor A1)

O=C1CN=C(c2ccccc2)c2cc([N+](=O)[O-])ccc2N1 [NITRAZEPAM]
Not Active: IC50 (Calcitonin receptor) | IC50 (Endothelin-1 receptor) | IC50 [1] | Ki [1] | IC50 [2] | IC50 (Adenosine receptor A1)

CNCCC=C1c2ccccc2CCc2ccccc21 [NORTRIPTYLINE]
Not Active: IC50 (Calcitonin receptor) | IC50 (Endothelin-1 receptor) | IC50 [1] | Ki [1] | IC50 [2] | IC50 (Adenosine receptor A1)

CC1COc2c(N3CCN(C)CC3)c(F)cc3c(=O)c(C(=O)O)cn1c23 (configuration not stated) [OFLOXACIN]
Not Active: IC50 (Calcitonin receptor) | IC50 (Endothelin-1 receptor) | IC50 [1] | Ki [1] | IC50 [2] | IC50 (Adenosine receptor A1)

Oc1cccc2cccnc12 [OXYQUINOLINE]
Not Active: IC50 (Calcitonin receptor) | IC50 (Endothelin-1 receptor) | IC50 [1] | Ki [1] | IC50 [2] | IC50 (Adenosine receptor A1)

CN(C)[C@@H]1C(O)=C(C(N)=O)C(=O)[C@@]2(O)C(O)=C3C(=O)c4c(O)cccc4[C@@](C)(O)[C@H]3[C@H](O)[C@@H]12 [OXYTETRACYCLINE]
Not Active: IC50 (Calcitonin receptor) | IC50 (Endothelin-1 receptor) | IC50 [1] | Ki [1] | IC50 [2] | IC50 (Adenosine receptor A1)

Fc1ccc([C@@H]2CCNC[C@H]2COc2ccc3c(c2)OCO3)cc1 [PAROXETINE]
Not Active: IC50 (Calcitonin receptor) | IC50 (Endothelin-1 receptor) | IC50 [1] | Ki [1] | IC50 [2] | IC50 (Adenosine receptor A1)

CC(C)(S)[C@@H](N)C(=O)O [PENICILLAMINE]
Not Active: IC50 (Calcitonin receptor) | IC50 (Endothelin-1 receptor) | IC50 [1] | Ki [1] | IC50 [2] | IC50 (Adenosine receptor A1)

CC(=O)CCCCn1c(=O)c2c(ncn2C)n(C)c1=O [PENTOXIFYLLINE]
Not Active: IC50 (Calcitonin receptor) | IC50 (Endothelin-1 receptor) | IC50 [1] | Ki [1] | IC50 [2] | IC50 (Adenosine receptor A1)

O=C1NC(=O)C(c2ccccc2)(c2ccccc2)N1 [PHENYTOIN]
Not Active: IC50 (Calcitonin receptor) | IC50 (Endothelin-1 receptor) | IC50 [1] | Ki [1] | IC50 [2] | IC50 (Adenosine receptor A1)

CNC(=O)Oc1ccc2c(c1)[C@]1(C)CCN(C)[C@@H]1N2C [PHYSOSTIGMINE]
Not Active: IC50 (Calcitonin receptor) | IC50 (Endothelin-1 receptor) | IC50 [1] | Ki [1] | IC50 [2] | IC50 (Adenosine receptor A1)

C=C(C)[C@@H]1[C@H]2OC(=O)[C@@H]1[C@]1(O)C[C@H]3O[C@]34C(=O)O[C@H]2[C@]14C [PICROTOXININ]
Not Active: IC50 (Calcitonin receptor) | IC50 (Endothelin-1 receptor) | IC50 [1] | Ki [1] | IC50 [2] | IC50 (Adenosine receptor A1)

CN1C(C(=O)Nc2ccccn2)=C(O)c2ccccc2S1(=O)=O [PIROXICAM]
Not Active: IC50 (Calcitonin receptor) | IC50 (Endothelin-1 receptor) | IC50 [1] | Ki [1] | IC50 [2] | IC50 (Adenosine receptor A1)

CCC1(c2ccccc2)C(=O)NCNC1=O [PRIMIDONE]
Not Active: IC50 (Calcitonin receptor) | IC50 (Endothelin-1 receptor) | IC50 [1] | Ki [1] | IC50 [2] | IC50 (Adenosine receptor A1)
